Patent publication US11155523B2, “Biphenyl compound as CCR2/CCR5 receptor antagonist” (Medshine Discovery Inc., priority 2016, dated 2021)

Columns and labels:
CYP2C19 = target: T1, CYP2C19 (Homo sapiens, UniProt P33261); experiment: Inhibition of human liver microsomal CYP2C19 ((S)-mephenytoin probe); assay type: in vitro ADME; settings: human liver microsomes
T1 construct: from tissue; host or cells: human liver microsomes
Procedure: Experimental Example 4 Inhibition Effect on the Activity of Human Liver Microsomal Cytochrome P450 Isoezymes (CYP1A2, CYP2C9, CYP2C19, CYP2D6 and CYP3A4)
A total of 5 specific probe substrates for CYP's five isozymes, Phenacetin (CYP1A2), Diclofenac (CYP2C9), […] (S)-Mephenytoin, CYP2C19), Dextromethorphan (CYP2D6) and Midazolam (CYP3A4) were incubated with human liver microsomes and test compounds, respectively, and reduced nicotinamide adenine dinucleotide phosphate (NADPH) was added to initiate the reaction. After the reaction, the sample was processed and liquid chromatography tandem mass spectrometry (LC-MS/MS) was used to quantitatively detect the […] metabolites produced by the specific substrate, Acetaminophen and 4′-hydroxydiclofenac, 4′-hydroxymephenytoin, Dextrorphan and 1′-hydroxymidazolam, in order to calculate the corresponding half maximal inhibitory concentration (IC50).

[1] = Comparative pharmacokinetics study in rats; assay type: in vivo, SD male rats; settings: rat
Procedure: Experimental Example 2: Comparative Pharmacokinetics Study in Rats
(§1) SD male rats were used as the test animals in this study. The drug concentrations in plasma of the rats by intravenous or oral administration of test compounds WX017, WX047, WX079, WX088 and reference compound at different time points were quantitatively determined by LC/MS/MS, which were used to evaluate the pharmacokinetic profile of the two test drugs in rats.
A clear solution of the test compound was injected into SD rats via the tail vein (overnight fasting, 7-10 weeks old), and the test compound was orally administered to the SD rats (overnight fasting, 7-10 weeks old). Approximately 200 μL of blood was collected from the jugular vein or tail vein of the animals 0.0833, 0.25, 0.5, 1, 2, 4, 6, 8 and 24 hours after administration, and was placed in an anticoagulant tube containing EDTA-K2. The plasma was collected by centrifugation at 3000 g for 15 minutes at 4° C. The plasma concentration was determined by LC-MS/MS. The pharmacokinetic parameters were calculated by the non-compartment model linear logarithmic trapezoidal method using WinNonlin™ Version 6.3 (Pharsight, Mountain View, Calif.) pharmacokinetic software.

[2] = Comparative pharmacokinetics study in cynomolgus monkeys; assay type: in vivo; settings: cynomolgus monkey
Text: Experimental Example 3: Comparative Pharmacokinetics Study in Cynomolgus Monkeys
as §1, with “Male cynomolgus monkeys” for “SD male rats”, “cynomolgus monkeys” for “rats”, “compound WX047” for “compounds WX017, WX047, WX079, WX088”, “cynomolgus monkeys.” for “rats.”
A clear solution of the test compound was injected into cynomolgus monkeys via t the cephalic or saphenous vein (overnight fasting, 2.5-7 kg), and the test compound was intragastrically administered to the cynomolgus monkeys (overnight fasting, 7-10 weeks old). Approximately 400 μL of blood was collected from the peripheral vein of the animals 0.0833, 0.25, 0.5, 1, 2, 4, 6, 8, 12 and 24 hours after administration, and transferred into an commercial centrifuge tube containing EDTA-K2*2H2O anticoagulation. The plasma was collected by centrifugation at 3000 g for 10 minutes at 4° C. The plasma concentration was determined by LC-MS/MS. The pharmacokinetic parameters were calculated by the non-compartment model linear logarithmic trapezoidal method using WinNonlin™ Version 6.3 (Pharsight, Mountain View, Calif.) pharmacokinetic software.

[3] = male, Sprague-Dawley (SD), plasma, intravenous injection 2 mg/kg
[4] = male, plasma, intravenous injection 1 mg/kg

T1 sequence (P33261 whole entry): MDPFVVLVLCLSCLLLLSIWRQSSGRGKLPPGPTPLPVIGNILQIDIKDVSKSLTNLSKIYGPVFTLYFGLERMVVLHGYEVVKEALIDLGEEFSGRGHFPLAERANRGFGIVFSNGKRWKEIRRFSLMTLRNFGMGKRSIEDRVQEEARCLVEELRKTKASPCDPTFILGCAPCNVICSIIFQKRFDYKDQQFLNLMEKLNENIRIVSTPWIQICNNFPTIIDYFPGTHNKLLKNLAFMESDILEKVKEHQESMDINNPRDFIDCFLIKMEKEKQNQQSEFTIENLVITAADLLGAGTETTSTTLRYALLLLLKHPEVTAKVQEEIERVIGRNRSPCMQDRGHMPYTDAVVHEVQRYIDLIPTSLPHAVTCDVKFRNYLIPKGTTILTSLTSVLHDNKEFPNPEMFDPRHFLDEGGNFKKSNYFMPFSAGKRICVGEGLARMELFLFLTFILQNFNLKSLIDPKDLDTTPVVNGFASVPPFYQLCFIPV

- IC50 (CYP2C19): > 50 µM
- clearance [1, 3]: 0.52 mL/min/kg
- half-life [1, 3]: 3.06 h
- bioavailability ([1]; male, Sprague-Dawley (SD), plasma, oral 10 mg/kg vs intravenous 2 mg/kg): 40.4%
- Area Under a Curve (0-inf) ([1]; intravenous injection 2 mg/kg): 101.904 µM·h
- Area Under a Curve (0-inf/0-last) ([1]; oral 10 mg/kg): 204.785 µM·h
- Peak time ([1]; oral 10 mg/kg): 5.0 h
- Oral plasma system exposure (AUC0-inf) as multiple of the reference compound ([1]; oral, relative to Cenicriviroc): 6.4 times
- Plasma clearance as percent of that of the reference compound ([1]; relative to Cenicriviroc): 33%
- Area Under a Curve (0-inf) ([2]; intravenous injection 1 mg/kg): 3.149 µM·h
- Area Under a Curve (0-inf/0-last) ([2]; oral 3 mg/kg): 3.678 µM·h
- Peak time ([2]; oral 3 mg/kg): 2.0 h
- Oral plasma system exposure (AUC0-inf) as multiple of the reference compound ([2]; oral, relative to Cenicriviroc): 10.8 times
- Bioavailability as multiple of the reference compound ([2]; relative to Cenicriviroc): 7.6 times
- clearance [2, 4]: 9.11 mL/min/kg
- half-life [2, 4]: 1.66 h
- bioavailability ([2]; male, plasma, oral 3 mg/kg vs intravenous 1 mg/kg): 38.9%
Compound: CCCCOCCOc1ccc(-c2ccc(OCC)c(/C=C/C(=O)Nc3ccc([S@+]([O-])Cc4c(C)ncn4CC)cc3)c2)cc1 [WX047]
